The record followed here is ChEMBL document CHEMBL3044781, “Triterpenoid saponins with antifeedant activities from stem bark of Catunaregam spinosa (Rubiaceae) against Plutella xylostella (Plutellidae)” (2011).

This test has as its system Plutella xylostella. The test is described as follows: Antifeedant activity against second-instar larval stage of Plutella xylostella (diamondback moth) in cabbage leaf disks assessed as consumed leaf area treated for 10 secs before larval infestation measured within 48 hr by non-choice leaf disc method. Type of test: functional.
For the compound `C[C@@H]1O[C@@H](O[C@H]2[C@H](O[C@H]3CC[C@]4(C)[C@H]5CC=C6[C@@H]7CC(C)(C)CC[C@]7(C(=O)O)CC[C@@]6(C)[C@]5(C)CC[C@H]4C3(C)C)O[C@H](CO)[C@@H](O)[C@@H]2O[C@@H]2O[C@H](CO)[C@@H](O)[C@H](O)[C@H]2O)[C@H](O)[C@H](O)[C@H]1O` [CATUNAROSIDE B], the AFC50 was 369.63 µg/mL.
For `CC1(C)CC[C@]2(C(=O)O[C@@H]3O[C@H](CO)[C@@H](O)[C@H](O)[C@H]3O)CC[C@]3(C)C(=CC[C@@H]4[C@@]5(C)CC[C@H](O[C@@H]6O[C@H](CO)[C@@H](O)[C@H](O[C@@H]7O[C@H](CO)[C@@H](O)[C@H](O)[C@H]7O)[C@H]6O[C@@H]6OC[C@@H](O)[C@H](O)[C@H]6O)C(C)(C)[C@@H]5CC[C@]43C)[C@@H]2C1` [ARALIASAPONIN IV], the AFC50 turned out to be 335.54 µg/mL.
The result for `CC1(C)CC[C@]2(C(=O)O)CC[C@]3(C)C(=CC[C@@H]4[C@@]5(C)CC[C@H](O[C@@H]6O[C@H](CO)[C@@H](O)[C@H](O[C@@H]7O[C@H](CO)[C@@H](O)[C@H](O)[C@H]7O)[C@H]6O[C@@H]6OC[C@@H](O)[C@H](O)[C@H]6O)C(C)(C)[C@@H]5CC[C@]43C)[C@@H]2C1` [SWARTZIATRIOSIDE] reads 106.73 µg/mL.
As to `CC1(C)CC[C@]2(C(=O)O[C@@H]3O[C@H](CO)[C@@H](O)[C@H](O)[C@H]3O)CC[C@]3(C)C(=CC[C@@H]4[C@@]5(C)CC[C@H](O[C@@H]6O[C@H](CO)[C@@H](O)[C@H](O[C@@H]7O[C@H](CO)[C@@H](O)[C@H](O)[C@H]7O)[C@H]6O[C@@H]6O[C@H](CO)[C@@H](O)[C@H](O)[C@H]6O)C(C)(C)[C@@H]5CC[C@]43C)[C@@H]2C1` [ARALIA-SAPONIN V], the AFC50 is 5467.82 µg/mL.
Regarding `CC1(C)CC[C@]2(C(=O)O[C@@H]3O[C@H](CO)[C@@H](O)[C@H](O)[C@H]3O)CC[C@]3(C)C(=CC[C@@H]4[C@@]5(C)CC[C@H](O[C@@H]6O[C@H](CO)[C@@H](O)[C@H](O[C@@H]7O[C@H](CO)[C@@H](O)[C@H](O)[C@H]7O)[C@H]6O[C@@H]6OC[C@@H](O)[C@H](O)[C@H]6O)C(C)(C)[C@@H]5CC[C@]43C)[C@@H]2[C@@H]1O` [CATUNAROSIDE], the AFC50 was 608.42 µg/mL.
Take `CC1(C)CC[C@]2(C(=O)O)CC[C@]3(C)C(=CC[C@@H]4[C@@]5(C)CC[C@H](O[C@@H]6O[C@H](CO)[C@@H](O)[C@H](O[C@@H]7O[C@H](CO)[C@@H](O)[C@H](O)[C@H]7O)[C@H]6O[C@@H]6OC[C@@H](O)[C@H](O)[C@H]6O)C(C)(C)[C@@H]5CC[C@]43C)[C@@H]2[C@@H]1O` [CATUNAROSIDE A]: the AFC50 amounted to 243.23 µg/mL.
Regarding `C[C@@H]1O[C@@H](O[C@H]2[C@H](O[C@H]3CC[C@]4(C)[C@H]5CC=C6[C@@H]7[C@H](O)C(C)(C)CC[C@]7(C(=O)O[C@@H]7O[C@H](CO)[C@@H](O)[C@H](O)[C@H]7O)CC[C@@]6(C)[C@]5(C)CC[C@H]4C3(C)C)O[C@H](CO)[C@@H](O)[C@@H]2O[C@@H]2O[C@H](CO)[C@@H](O)[C@H](O)[C@H]2O)[C@H](O)[C@H](O)[C@H]1O` [CATUNAROSIDE C], the AFC50 is 946.13 µg/mL.
